According to patent US11332451B2, “RIP1 inhibitory compounds and methods for making and using the same” (priority 2018, dated 2022):

System: TNF-alpha induced hypothermia
Assay: acute hypothermia mouse model (TNF-alpha/zVAD-FMK induced hypothermia)
Type: in vivo, mice
Conditions: dose of 5 mg/kg, oral gavage
Experimental: In this example, an acute hypothermia mouse model assay was used to evaluate the ability of compounds disclosed herein to inhibit TNF-alpha induced hypothermia.
Female C57BL/6 mice are randomly grouped and weighed on Day −1. On the day of the study (Day 0), mice are administered vehicle or test article by oral gavage. Fifteen minutes after oral administration of test agents, each mouse is administered an intraperitoneal (IP) injection of solution containing recombinant human tumor necrosis factor alpha (TNF-a, 25.0 μg) and zVAD-FMK (200 μg). Body temperature is measured at 0 hours (before IP injections) and every hour via rectal probe temperature measuring device. Three (3) hours after IP injections of TNF-α and zVAD/FMK, mice are euthanized by CO2 asphyxiation and blood is collected via cardiac puncture. Serum and plasma are harvested for determination of cytokine and compound levels, respectively. Separate groups of mice (satellite mice) are included for the determination of compound levels in plasma at the time of administration of TNFa/zVAD-FMK.
(S)-5-benzyl-N-(5-methyl-4-oxo-2,3,4,5-tetrahydrobenzo[b][1,4]oxazepin-3-yl)-4H-1,2,4-triazole-3-carboxamide (WO 2014/125444), having a structure as illustrated below, was used as a comparative compound and was examined using a similar protocol as described by WO 2014/125444.

## CN1C(=O)[C@@H](NC(=O)c2n[nH]c(Cc3ccccc3)n2)COc2ccc(C#CC(C)(C)O)cc21 [Compound I-30, (S)-5-benzyl-N-(7-(3-hydroxy-3-methylbut-1-yn-1-yl)-5-methyl-4-oxo-2,3,4,5-tetrahydrobenzo[b][1,4]oxazepin-3-yl)-1H-1,2,4-triazole-3-carboxamide]
  inhibition of TNF-alpha induced hypothermia: greater than 85%
